“And” between values parts separate entries of the source, which are not always exact repeats. Equal values may be shown once.
Biological target: T1, recombinant human GST-Syk (Homo sapiens, UniProt P43405)
T1 construct: purchased Carna Biosciences 08-176
Assay: Homogeneous Time-Resolved Fluorescence (HTRF) assay for the recombinant human Syk enzyme
Type: biochemical
Conditions: recombinant human GST-Syk 5 pM, ATP 25 μM, 10-dose titration 10 μM to 0.508 nM; read-out: rhSYK Activity IC50
Method in brief: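 Detection used time-resolved fluorescence 30 min after adding a quench mix (40 mM EDTA, 15 mM Tris pH 7.5, 0.01% Tween 20) containing 2 nM Europium anti-pTyr antibody and 70 nM streptavidin-APC. This followed 45 min of room-temperature peptide phosphorylation by recombinant GST-tagged human Syk.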

Row | Compound | IC50
1 | C=C(C)Cn1cc(-c2cc(C)cc(Nc3cc(C(F)(F)F)ccn3)n2)nn1 [Example 5.40, 4-methyl-6-[1-(2-methylprop-2-en-1-yl)-1H-1,2,3-triazol-4-yl]-N-[4-(trifluoromethyl)pyridin-2-yl]pyridin-2-amine] | 28.9 nM
2 | Cc1cc(Nc2cc(C(F)(F)F)ccn2)nc(-c2cn(Cc3ccc(C(=O)O)cc3)nn2)c1 [Example 5.42, 4-{[4-(4-methyl-6-{[4-(trifluoromethyl)pyridin-2-yl]amino}pyridin-2-yl)-1H-1,2,3-triazol-1-yl]methyl}benzoic acid] | 3.3 nM
3 | Cc1cc(Nc2cc(C(F)(F)F)ccn2)nc(-c2cn(C[C@H](O)CC#N)nn2)c1 [Example 5.44, (3R)-3-hydroxy-4-[4-(4-methyl-6-{[4-(trifluoromethyl)pyridin-2-yl]amino}pyridin-2-yl)-1H-1,2,3-thiazol-1-yl]butanenitrile] | 4.1 nM and 3.18 nM
4 | Cc1cc(Nc2cc(C(F)(F)F)ccn2)nc(-c2cn(C/C=C/C(=O)O)nn2)c1 [Example 5.45, (2E)-4-[4-(4-methyl-6-{[4-(trifluoromethyl)pyridin-2-yl]amino}pyridin-2-yl)-1H-1,2,3-triazol-1-yl]but-2-enoic acid] | 8.3 nM
5 | Cc1cc(Nc2nccc(C(F)(F)F)n2)cc(-c2cn(CCCN)nn2)c1 [Example 5.48, N-{3-[1-(3-aminopropyl)-1H-1,2,3-triazol-4-yl]-5-methylphenyl}-4-(trifluoromethyl)pyrimidin-2-amine] | 32.9 nM
6 | Cc1cc(Nc2nccc(C(F)(F)F)n2)cc(-c2cn(CCOCCO)nn2)c1 [Example 5.49, 2-{2-[4-(3-methyl-5-{[4-(trifluoromethyl)pyrimidin-2-yl]amino}phenyl)-1H-1,2,3-triazol-1-yl]ethoxy}ethanol] | 78.8 nM
7 | Cc1cc(Nc2nccc(C(F)(F)F)n2)cc(-c2cn(CCCN3CCOCC3)nn2)c1 [Example 5.51, N-{3-mcthyl-5-[1-(3-morpholin-4-ylpropyl)-1H-1,2,3-triazol-4-yl]phenyl}-4-(trifluoromethyl)pyrimidin-2-amine] | 177 nM
8 | Cc1cc(Nc2nccc(C(F)(F)F)n2)cc(-c2cn(CC(C)(C)O)nn2)c1 [Example 5.55, 2-methyl-1-[4-(3-methyl-5-{[4-(trifluoromethyl)pyrimidin-2-yl]amino}phenyl)-1H-1,2,3-triazol-1-yl]propan-2-ol] | 23.5 nM
9 | Cc1cc(Nc2nccc(C(F)(F)F)n2)cc(-c2cn(CC(=O)O)nn2)c1 [Example 5.58, [4-(3-methyl-5-{[4-(trifluoromethyl)pyrimidin-2-yl]amino}phenyl)-1H-1,2,3-triazol-1-yl]acetic acid] | 61.3 nM
10 | CC(=O)N1CCN(C(=O)Cn2cc(-c3cc(C)cc(Nc4nccc(C(F)(F)F)n4)c3)nn2)CC1 [Example 5.59, N-(3-{1-[2-(4-acetylpiperazin-1-yl)-2-oxoethyl]-1H-1,2,3-triazol-4-yl}-5-methylphenyl)-4-(trifluoromethyl)pyrimidin-2-amine] | 69.8 nM
11 | Cc1cc(Nc2nccc(C(F)(F)F)n2)cc(-c2cn(CCC(=O)O)nn2)c1 [Example 5.60, 3-[4-(3-methyl-5-{[4-(trifluoromethyl)pyrimidin-2-yl]amino}phenyl)-1H-1,2,3-triazol-1-yl]propanoic acid] | 41.8 nM
12 | Cc1cc(Nc2nccc(C(F)(F)F)n2)cc(-c2cn(CCS(C)(=O)=O)nn2)c1 [Example 5.62, N-(3-methyl-5-{1-[2-(methylsulfonyl)ethyl]-1H-1,2,3-triazol-4-yl}phenyl)-4-(trifluoromethyl)pyrimidin-2-amine] | 46.4 nM

Same assay, conditions: rhSYK Activity IC50, recombinant human GST-Syk 5 pM, ATP 25 μM, 10-dose titration 10 μM to 0.508 nM

Row | Compound | IC50 [nM]
13 | Cc1cc(Nc2nccc(C(F)(F)F)n2)cc(-c2cn(CCNC(N)=O)nn2)c1 [Example 5.56, 1-{2-[4-(3-methyl-5-{[4-(trifluoromethyl)pyrimidin-2-yl]amino}phenyl)-1H-1,2,3-triazol-1-yl]ethyl}urea] | 76.8

Reference: US9586931B2 (Merck Sharp & Dohme Corp., priority 2012, dated 2017)
